Experimental data from US12569498B2, “Methods and compositions for the prevention and treatment of ischemia reperfusion injury and infection” (CHILDREN'S NATIONAL MEDICAL CENTER, priority 2019, dated 2026).
Entries after “also recorded” stand apart in the source; their conditions may differ.

Experiments:
[1] = Warm ischemia of the hindlimb (flow cytometry, quantitative PCR, trichrome staining); format: in vivo; conditions: vs untreated controls
[2] = test system: oxidative stress within the testis; experiment: Myeloperoxidase activity and reduced glutathione levels in testis after testicular torsion; format: in vivo, CD1 mice; conditions: varenicline 1 hour after onset of torsion, vs untreated controls; for reduced glutathione (GSH) levels in testis: 48 hours following reperfusion, P≤0.0742
Description: Mice underwent testicular torsion as previously described (Lysiak 2001). Briefly, mice were anesthetized with isoflurane over a heating pad. The right testis was delivered through a low scrotal incision and rotated counterclockwise 720 degrees to induce ischemia for 2 hours. […] All animals were injected with long-acting buprenorphine (0.1 mg/kg) for long-term pain control prior to being recovered from anesthesia. […] Mice kept for 30 days after surgery were weighed on a weekly basis.
(§1) Cytisine (Sigma-Aldrich, St. Louis, MO) was administered intraperitoneally at a dose of 0.1 μg/gram either 1 hour before torsion or 1 hour after torsion (1 hour prior to detorsion). Varenicline ([…]) was administered as an intraperitoneal injection one hour after the onset of torsion and then continued every 12 hours for a total of 4 doses.
Tissues were harvested and stored at −80° C. until use. Glutathione reductase activity was measured by use of glutathione reductase assay Kit (Sigma-Aldrich, St. Louis, MO). Testis tissue was homogenized in 5% sulfosalicylic Acid (SSA) solution. Samples were then centrifuged and supernatant was reserved. Supernatants were added to a reaction mixture containing 95 mM potassium phosphate buffer, pH 7.0, 0.95 mM EDTA, 0.038 mg/mL NADPH, 0.031 mg/mL DTNB, 0.115 units/mL glutathione reductase, and 0.24% SSA. Absorbance at 412 nm was recorded. Glutathione results were expressed as nm GSH per mL sample.
Following an ischemic event, the initial inflammatory response is characterized by an increase in oxidative stress and production of reactive oxygen species. In order to determine the effect of cytisine treatment on the level of reactive oxygen species (ROS) following testicular torsion, testicular levels of myeloperoxidase (MPO), a marker of neutrophil activation, and reduced glutathione (GSH) levels (an indirect measure of oxidative stress within the testis) were measured.

[3] = Renal scar formation and trichrome collagen quantification after acute pyelonephritis; format: in vivo, C3H/HeOuJ mice
Description: To initiate pyelonephritis, the bladder was catheterized with a 24-gauge angiocatheter and a total volume of 100 μL of a phosphate-buffered saline containing […] colony forming units (CFU) of CFT073 uropathogenic Escherichia coli (UPEC) was then instilled.
Tissues were preserved in formalin for 72 hours then stored in ethanol. Sections were cut to a 5 μm thickness and stained with H&E or Masson trichrome. Photographs were obtained at 20× resolution with Olympus VS120 virtual slide microscope system. The images were then analyzed with ImageJ Fiji software in order to quantify collagen deposition as previously described (Chen 2017). As collagen deposition would be expected as long-term sequelae of IRI, the trichrome stains of the long-term specimen were examined. All artifacts from the staining process as well as gross collecting system were cropped from these images prior to analysis. A color deconvolution plugin was used to separate the trichrome images into the separate colors. Analysis was performed based upon the percentage of deposition of collagen in the green image compared to the overall area of the kidneys.
Tissues harvested 21 days following completion of antibiotic therapy were subjected to trichome staining to assess for global collagen deposition. After removing artifacts (to ensure only parenchyma was included in the analysis), a color deconvolution plugin was used for ImageJ to divide the images into the respective three colors of the trichrome stain. A threshold was set and collagen was quantified as a percentage of green color in respect to the area of the entire kidney (FIG. 13).

[4] = cited from earlier work
[5] = Masson trichrome staining and ImageJ quantification of collagen in testis 30 days after torsion; format: in vivo, CD1 mice; conditions: 30 days following torsion, vs untreated, cytisine p<0.01, varenicline p<0.0001
Description: Mice underwent testicular torsion as previously described (Lysiak 2001). Briefly, mice were anesthetized with isoflurane over a heating pad. The right testis was delivered through a low scrotal incision and rotated counterclockwise 720 degrees to induce ischemia for 2 hours. […] All animals were injected with long-acting buprenorphine (0.1 mg/kg) for long-term pain control prior to being recovered from anesthesia. Mice were euthanized either 18 hours or 30 days following torsion. Mice kept for 30 days after surgery were weighed on a weekly basis.
as §1
Testis tissue was harvested and stored in 70% ethanol. Fixation, embedding, sectioning, and staining were performed by the research pathology core at George Washington University. Sections were cut at a thickness of […]. Tissues were stained for H&E or Masson trichrome. Photographs were scanned at 20× resolution with Olympus VS120 virtual slide microscope system. TIF images were analyzed with ImageJ Fiji software as previously described (Caetano, Fronza et al. 2016). The color deconvolution plugin was used to perform ImageJ analysis on an area measuring 3000 square pixels. Automatic thresholding was performed. The amount of collagen in each area is expressed as the percentage of blue pixels in the image area taken as an average of 3 non-overlapping measurements.

[6] = mice (Obach 2006); cited from earlier work
α7nAChR = α7nAChR (Homo sapiens, UniProt P36544); conditions: peak concentrations in smokers / levels with therapeutic dosing in humans (Campling 2013); cited from earlier work
[7] = adolescents aged 12-16, of 75 patients (Faessel 2009)

Chain of α7nAChR (P36544 23-502): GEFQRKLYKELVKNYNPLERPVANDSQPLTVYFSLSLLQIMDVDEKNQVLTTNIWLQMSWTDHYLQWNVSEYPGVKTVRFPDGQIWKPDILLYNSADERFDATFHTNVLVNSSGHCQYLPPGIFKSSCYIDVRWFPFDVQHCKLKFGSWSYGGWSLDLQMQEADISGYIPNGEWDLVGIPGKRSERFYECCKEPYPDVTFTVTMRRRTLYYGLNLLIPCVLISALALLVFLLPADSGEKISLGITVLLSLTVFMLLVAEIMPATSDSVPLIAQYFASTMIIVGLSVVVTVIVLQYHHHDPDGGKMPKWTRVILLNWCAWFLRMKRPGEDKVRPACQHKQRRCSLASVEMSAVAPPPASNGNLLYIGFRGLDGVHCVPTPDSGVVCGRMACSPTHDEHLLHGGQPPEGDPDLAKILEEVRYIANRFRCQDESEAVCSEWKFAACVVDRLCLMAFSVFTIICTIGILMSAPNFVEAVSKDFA

c1cnc2cc3c(cc2n1)C1CNCC3C1 [varenicline, 7,8,9, 10-tetrahydro-6, 10-methano-6H-pyrazino[2,3-h][3]benzazepine]
infiltration of leukocytes (flow cytometry) ([1]; 24 hours after warm ischemia of the hindlimb, P≤0.01): decreased infiltration of leukocytes | expression of pro-fibrotic genes (quantitative PCR) ([1]; 7 days after reperfusion of the limb): decreased expression of pro-fibrotic genes | collagen deposition in muscle fibers (trichrome staining) ([1]; 14 days following limb ischemia, P≤0.005): significant decrease in collagen deposition | reduced glutathione (GSH) levels in testis [2]: increased levels of reduced glutathione (GSH) | reduced glutathione (GSH) levels in testis ([2]; listed as Varenicline): preserved reduced glutathione levels | myeloperoxidase (MPO) activity in testis ([2]; P≤0.0013): decreased levels of MPO activity; also recorded: significantly decreased | collagen deposition in the kidneys (percentage of green pigment per area of entire kidney) ([3]; 21 days following completion of antibiotic therapy, varenicline plus ceftriaxone vs ceftriaxone alone, p=0.001): significantly lower amount of collagen deposition; also recorded: long-term decrease in collagen deposition | incidence of renal scar formation and renal atrophy ([3]; 30 days following acute pyelonephritis, preliminary results): decreased | incidence of neurocognitive side effects ([4]; adolescents aged 12-16 (Faessel 2009)): 3 out of 75 | abnormal dreams [4, 7]: 2 patients | transient mild anger [4, 7]: 1 patient | collagen content of testis (trichrome staining, percentage of collagen) [5]: untreated group had significantly higher collagen content; also recorded: decreased histologic and genetic markers of testicular fibrosis | collagen content of testis (trichrome staining, percentage of collagen) ([5]; listed as Varenicline): significantly higher percentage of collagen in the untreated animals | half-life [6]: 1.4 h | activation of α7nAChR at clinically reached concentrations (α7nAChR): α7nAChR agonist at concentrations found with therapeutic dosing in humans; also recorded: strong α4β2nAChR and α7nAChR agonist
